Consider one substance from PMC12019475 (ACS Omega, 2025).

The subject of the test is CcrM from Moraxella lincolnii. Kind of test: radiochemical DNA methylation assay. In kind it is biochemical, Lwoffella lincolnii. Conditions: read-out: M. lincolnii IC50; DNA and AdoMet as substrates.

As usually defined, the IC50 is the concentration that gives 50% inhibition. In the case of NSC317003 [NSC 2], the IC50 came out at 45.8 ± 3.2 µM.
